Reference: PubChem BioAssay (NCI)
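GI50 marks 50% less growth. TGI denotes the concentration required for complete inhibition of growth.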

Columns and labels:
Test in all cases: DTP human tumour cell line panel, 384-well format
K-562 leukemia = tested on: K-562 leukemia
UACC-257 melanoma = tested on: UACC-257 melanoma
NCI/ADR-RES ovarian = tested on: NCI/ADR-RES ovarian
HOP-92 NSCLC = tested on: HOP-92 NSCLC
HCT-116 colon = tested on: HCT-116 colon
MALME-3M melanoma = tested on: MALME-3M melanoma
UACC-62 melanoma = tested on: UACC-62 melanoma
NCI-H226 lung = tested on: NCI-H226 lung
IGROV1 ovarian = tested on: IGROV1 ovarian
PC-3 prostate = tested on: PC-3 prostate
HOP-62 NSCLC = tested on: HOP-62 NSCLC
U251 glioblastoma = tested on: U251 glioblastoma
NCI-H23 lung = tested on: NCI-H23 lung
MCF7 breast = tested on: MCF7 breast
ACHN renal = tested on: ACHN renal
CAKI-1 renal = tested on: CAKI-1 renal
SW-620 colon = tested on: SW-620 colon
TK-10 renal = tested on: TK-10 renal
LOX IMVI melanoma = tested on: LOX IMVI melanoma
SK-MEL-28 melanoma = tested on: SK-MEL-28 melanoma
BT-549 breast = tested on: BT-549 breast
RXF 393 renal = tested on: RXF 393 renal
DU-145 prostate = tested on: DU-145 prostate
786-0 renal = tested on: 786-0 renal
CCRF-CEM leukemia = tested on: CCRF-CEM leukemia
SK-OV-3 ovarian = tested on: SK-OV-3 ovarian
SF-268 CNS = tested on: SF-268 CNS
NCI-H522 lung = tested on: NCI-H522 lung
UO-31 renal = tested on: UO-31 renal
A549 NSCLC = tested on: A549 NSCLC
HT29 colon = tested on: HT29 colon
SK-MEL-2 melanoma = tested on: SK-MEL-2 melanoma
T-47D breast = tested on: T-47D breast
SR leukemia = tested on: SR leukemia
OVCAR-8 ovarian = tested on: OVCAR-8 ovarian
HL-60(TB) leukemia = tested on: HL-60(TB) leukemia
NCI-H322M lung = tested on: NCI-H322M lung
SK-MEL-5 melanoma = tested on: SK-MEL-5 melanoma
KM12 colon = tested on: KM12 colon
SN12C renal = tested on: SN12C renal
RPMI-8226 leukemia = tested on: RPMI-8226 leukemia
COLO 205 colon = tested on: COLO 205 colon
MDA-MB-435 melanoma = tested on: MDA-MB-435 melanoma
MDA-MB-468 breast = tested on: MDA-MB-468 breast
HCC-2998 colon = tested on: HCC-2998 colon
SF-295 CNS = tested on: SF-295 CNS
SNB-19 CNS = tested on: SNB-19 CNS
OVCAR-4 ovarian = tested on: OVCAR-4 ovarian
MOLT-4 leukemia = tested on: MOLT-4 leukemia
SF-539 CNS = tested on: SF-539 CNS
HCT-15 colon = tested on: HCT-15 colon
A498 renal = tested on: A498 renal
NCI-H460 NSCLC = tested on: NCI-H460 NSCLC
M14 melanoma = tested on: M14 melanoma
OVCAR-5 ovarian = tested on: OVCAR-5 ovarian

With `C/C(=N\NC(=O)c1cccc(S(=O)(=O)N2CCN(C)CC2)c1)c1cc(Cl)ccc1O` the GI50 (K-562 leukemia) was 2620 nM, the TGI (K-562 leukemia) was 13800 nM and the GI50 (UACC-257 melanoma) was 521 nM. For the same compound, the TGI (UACC-257 melanoma) was 3980 nM, the GI50 (NCI/ADR-RES ovarian) was 777 nM and the TGI (NCI/ADR-RES ovarian) was 2360 nM. For the same compound, the GI50 (HOP-92 NSCLC) was 573 nM, the TGI (HOP-92 NSCLC) was 6820 nM and the GI50 (HCT-116 colon) was 425 nM. For the same compound, the TGI (HCT-116 colon) was 2020 nM, the GI50 (MALME-3M melanoma) was 641 nM and the TGI (MALME-3M melanoma) was 8520 nM. The GI50 (UACC-62 melanoma) was 544 nM, the TGI (UACC-62 melanoma) was 2860 nM and the GI50 (NCI-H226 lung) was 523 nM. It also gave a TGI (NCI-H226 lung) of 3450 nM, a GI50 (IGROV1 ovarian) of 339 nM and a TGI (IGROV1 ovarian) of 2750 nM. The GI50 (PC-3 prostate) was 1160 nM, the TGI (PC-3 prostate) was 17400 nM and the GI50 (HOP-62 NSCLC) was 142 nM. It also gave a TGI (HOP-62 NSCLC) of 898 nM, a GI50 (U251 glioblastoma) of 478 nM and a TGI (U251 glioblastoma) of 8250 nM. The GI50 (NCI-H23 lung) was 236 nM, the TGI (NCI-H23 lung) was 590 nM and the GI50 (MCF7 breast) was 594 nM. For the same compound, the TGI (MCF7 breast) was 8010 nM, the GI50 (ACHN renal) was 627 nM and the TGI (ACHN renal) was 13400 nM. The GI50 (CAKI-1 renal) was 472 nM, the TGI (CAKI-1 renal) was 10200 nM and the GI50 (SW-620 colon) was 1640 nM. It also gave a TGI (SW-620 colon) of 19000 nM, a GI50 (TK-10 renal) of 642 nM and a TGI (TK-10 renal) of 19800 nM. It also gave a GI50 (LOX IMVI melanoma) of 644 nM, a TGI (LOX IMVI melanoma) of 2030 nM and a GI50 (SK-MEL-28 melanoma) of 134 nM. It also gave a TGI (SK-MEL-28 melanoma) of 14300 nM, a GI50 (BT-549 breast) of 351 nM and a TGI (BT-549 breast) of 4190 nM. For the same compound, the GI50 (RXF 393 renal) was 43 nM, the TGI (RXF 393 renal) was 557 nM and the GI50 (DU-145 prostate) was 534 nM. For the same compound, the TGI (DU-145 prostate) was 11600 nM, the GI50 ([…]-0 renal) was 345 nM and the TGI (786-0 renal) was 2210 nM. For the same compound, the GI50 (CCRF-CEM leukemia) was 216 nM, the TGI (CCRF-CEM leukemia) was 1070 nM and the GI50 (SK-OV-3 ovarian) was 422 nM. The TGI (SK-OV-3 ovarian) was 57200 nM, the GI50 (SF-268 CNS) was 141 nM and the TGI (SF-268 CNS) was 2150 nM. For the same compound, the GI50 (NCI-H522 lung) was 471 nM, the TGI (NCI-H522 lung) was 12000 nM and the GI50 (UO-31 renal) was 489 nM. The TGI (UO-31 renal) was 8090 nM, the GI50 (A549 NSCLC) was 447 nM and the TGI (A549 NSCLC) was greater than 100000 nM. The GI50 (HT29 colon) was 439 nM, the TGI (HT29 colon) was 13600 nM and the GI50 (SK-MEL-2 melanoma) was 567 nM. For the same compound, the TGI (SK-MEL-2 melanoma) was 3580 nM, the GI50 (T-47D breast) was 657 nM and the TGI (T-47D breast) was 9270 nM. For the same compound, the GI50 (SR leukemia) was 144 nM, the TGI (SR leukemia) was 287 nM and the GI50 (OVCAR-8 ovarian) was 477 nM. For the same compound, the TGI (OVCAR-8 ovarian) was 1950 nM, the GI50 (HL-60(TB) leukemia) was 442 nM and the TGI (HL-60(TB) leukemia) was 1220 nM. The GI50 (NCI-H322M lung) was 231 nM, the TGI (NCI-H322M lung) was 32000 nM and the GI50 (SK-MEL-5 melanoma) was 62 nM. It also gave a TGI (SK-MEL-5 melanoma) of 441 nM, a GI50 (KM12 colon) of 541 nM and a TGI (KM12 colon) of 14700 nM. The GI50 (SN12C renal) was 735 nM, the TGI (SN12C renal) was 3360 nM and the GI50 (RPMI-8226 leukemia) was 339 nM. For the same compound, the TGI (RPMI-8226 leukemia) was 1180 nM, the GI50 (COLO 205 colon) was 236 nM and the TGI (COLO 205 colon) was 594 nM. The GI50 (MDA-MB-435 melanoma) was 557 nM, the TGI (MDA-MB-435 melanoma) was 74200 nM and the GI50 (MDA-MB-468 breast) was 177 nM. It also gave a TGI (MDA-MB-468 breast) of 382 nM, a GI50 (HCC-2998 colon) of 54.5 nM and a TGI (HCC-2998 colon) of 15000 nM. It also gave a GI50 (SF-295 CNS) of 250 nM, a TGI (SF-295 CNS) of 1310 nM and a GI50 (SNB-19 CNS) of 1060 nM. For the same compound, the TGI (SNB-19 CNS) was 6020 nM, the GI50 (OVCAR-4 ovarian) was 201 nM and the TGI (OVCAR-4 ovarian) was 29000 nM. It also gave a GI50 (MOLT-4 leukemia) of 114 nM, a TGI (MOLT-4 leukemia) of 240 nM and a GI50 (SF-539 CNS) of 442 nM. The TGI (SF-539 CNS) was 3310 nM, the GI50 (HCT-15 colon) was 301 nM and the TGI (HCT-15 colon) was 12900 nM. For the same compound, the GI50 (A498 renal) was 268 nM, the TGI (A498 renal) was 20100 nM and the GI50 (NCI-H460 NSCLC) was 296 nM. The TGI (NCI-H460 NSCLC) was 1210 nM, the GI50 (M14 melanoma) was 247 nM and the TGI (M14 melanoma) was 1990 nM. The GI50 (OVCAR-5 ovarian) was 455 nM and the TGI (OVCAR-5 ovarian) was 35300 nM.
